The source made the active and inactive calls. The calls are words filed in the database; no cut-off is given here.
Assays:
[1] = Effective permeability of the compound at pH 7.4 by PAMPA assay; format: ADME; details: read-out: Peff
A549 [2] = test: Effect on total p38 protein levels in human A549 cells at 1 uM after 3 hrs by Western blot analysis relative to control; format: ADME, cell-based; details: a549, 3 h
A549 [3] = test: Effect on total AKT protein levels in human A549 cells at 1 uM after 3 hrs by Western blot analysis relative to control; format: ADME, cell-based; details: a549, 3 h
HEK293 = test: Cytotoxicity against HEK293 cells assessed as cell growth inhibition preincubated for 24 hrs followed by compound washout measured after 72 hrs by MTT assay; format: functional, cell-based; details: Homo sapiens
[4] = molecular target: NAD(P)H dehydrogenase [quinone] 1 (Homo sapiens) (UniProt P15559); test: Substrate activity at NQO1 in human A549 cells assessed as induction of ROS-induced p38 phosphorylation at T180/Y182 at 1 uM after 3 hrs by Western blot analysis relative to control; format: cell-based
A549 [5] = test: Induction of ROS levels in human A549 cells xenografted in athymic nude mouse at 15 to 30 mg/kg, iv administered every other day for 3 weeks by DCFH-DA-probe based flow cytometry; format: functional, organism-based
[6] = molecular target: NAD(P)H dehydrogenase [quinone] 1 (Homo sapiens) (UniProt P15559); test: Substrate activity at NQO1 in human A549 cells assessed as induction of enzyme-catalyzed ROS production at 10 uM after 1 to 3 hrs by DCFH-DA-based flow cytometry; format: cell-based
Homo sapiens [7] = organism: Homo sapiens; test: Selectivity ratio for substrate activity at recombinant human NQO1 to substrate activity at CBR (unknown origin)
[8] = molecular target: NAD(P)H dehydrogenase [quinone] 1 (Homo sapiens) (UniProt P15559); test: Substrate activity at NQO1 in human A549 cells assessed as induction of ROS-induced JNK phosphorylation at 10 uM after 3 hrs in presence of DIC by Western blot analysis relative to control; format: cell-based
[9] = molecular target: NAD(P)H dehydrogenase [quinone] 1 (Homo sapiens) (UniProt P15559); test: Substrate activity at NQO1 in human A549 cells assessed as induction of ROS-induced Akt phosphorylation at […] at 5 uM after 3 hrs by Western blot analysis relative to control; format: cell-based
Homo sapiens [10] = organism: Homo sapiens; test: Selectivity ratio for substrate activity at recombinant human NQO1 to substrate activity at human CPR
MCF7 = test: Cytotoxicity against human MCF7 cells assessed as cell growth inhibition preincubated for 24 hrs followed by compound washout measured after 72 hrs by MTT assay; format: functional, cell-based
A549/TR = test: Cytotoxicity against human A549/TR cells assessed as cell growth inhibition preincubated for 24 hrs followed by compound washout measured after 72 hrs by MTT assay; format: functional, cell-based
A549 [11] = test: Effect on total p38 protein levels in human A549 cells at 10 uM after 3 hrs by Western blot analysis relative to control; format: ADME, cell-based; details: a549, 3 h
[12] = Lipophilicity, log D of the compound at pH 7.4; format: physicochemical; details: buffer
[13] = molecular target: NAD(P)H dehydrogenase [quinone] 1 (Homo sapiens) (UniProt P15559); test: Substrate activity at NQO1 in human A549 cells assessed as induction of enzyme-catalyzed lipid peroxidation by measuring MDA equivalents per protein at 5 uM after 24 hrs by TBARS assay (reference value: 3.53 +/- 1.12 nmol/mg); format: cell-based
[14] = molecular target: NAD(P)H dehydrogenase [quinone] 1 (Homo sapiens) (UniProt P15559); test: Substrate activity at NQO1 in human A549 cells assessed as induction of ROS-induced JNK phosphorylation at 10 uM after 3 hrs by Western blot analysis relative to control; format: cell-based
A549 [15] = test: Effect on total p38 protein levels in human A549 cells at 5 uM after 3 hrs by Western blot analysis relative to control; format: ADME, cell-based; details: a549, 3 h
[16] = molecular target: NAD(P)H dehydrogenase [quinone] 1 (Homo sapiens) (UniProt P15559); test: Substrate activity at NQO1 in human A549 cells assessed as induction of ROS-induced Akt phosphorylation at S473 at 5 uM after 3 hrs by Western blot analysis relative to control; format: cell-based
[17] = molecular target: NAD(P)H dehydrogenase [quinone] 1 (Homo sapiens) (UniProt P15559); test: Substrate activity at NQO1 in human A549 cells assessed as induction of ROS-induced ERK phosphorylation at 10 uM after 3 hrs in presence of NAC by Western blot analysis relative to control; format: cell-based

Sequence of NAD(P)H dehydrogenase [quinone] 1 (Homo sapiens) (P15559 whole entry): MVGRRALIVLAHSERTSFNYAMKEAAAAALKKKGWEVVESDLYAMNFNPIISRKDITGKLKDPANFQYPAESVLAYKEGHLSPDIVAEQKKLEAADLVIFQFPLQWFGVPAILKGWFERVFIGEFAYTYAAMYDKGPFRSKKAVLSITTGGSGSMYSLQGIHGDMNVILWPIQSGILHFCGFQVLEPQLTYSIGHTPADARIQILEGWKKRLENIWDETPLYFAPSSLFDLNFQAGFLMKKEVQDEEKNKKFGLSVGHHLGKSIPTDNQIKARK

Papp [1]: 46.5 ×10⁻⁶ cm/s
fold change (FC) (A549 [2]): 0.93
fold change (FC) (A549 [3]): 1.07
fold change (FC) [4]: 11.1
Activity [6]: Active
Selectivity ratio (Homo sapiens [7]): 8.49
fold change (FC) [8]: 7.1
fold change (FC) [9]: 2.96
Selectivity ratio (Homo sapiens [10]): 20.8
fold change (FC) (A549 [11]): 1.1
logD [12]: 3.1
Activity [13]: 10.3 nmol/mg
fold change (FC) [14]: 30.5
fold change (FC) (A549 [15]): 1.1
fold change (FC) [16]: 2.01
fold change (FC) [17]: 2.21
Structure (SMILES): Cc1cc2c(cc1C)-c1oc(CNc3ccc(CN4CCOCC4)cc3)c(C)c1C(=O)C2=O
IC50 (HEK293): 3.9 µM
Activity (A549 [5]): Active
IC50 (MCF7): 4.7 µM
IC50 (A549/TR): 2.2 µM
